Laboratory results as given in ChEMBL document CHEMBL5052835, “Slc26a3 inhibitors and use thereof” (2021).
Active and inactive are the calls of the source. No cut-off for these calls is given here.

Key:
Mus musculus [1] = test: In vivo inhibition of […] in loperamide-induced constipation model of female CD-1 mouse at 5 mg/kg, po assessed as reduction in stool weight; type: functional, organism-based
Mus musculus [2] = test: In vivo inhibition of […] in loperamide-induced constipation model of female CD-1 mouse at 5 mg/kg, po assessed as reduction in stool water content; type: functional, organism-based
Mus musculus [3] = test: In vivo inhibition of […] in loperamide-induced constipation model of female CD-1 mouse at 5 mg/kg, po assessed as reduction in pellet number; type: functional, organism-based
Colon = test: Inhibition of fluid absorption in distal colonic loop isolated from female CD-1 mouse at 10 uM assessed as effect on reduction in loop weight/length ratio; type: functional, tissue-based
Chloride anion exchanger = molecular target: T1, Chloride anion exchanger (Mus musculus, UniProt Q9WVC8); test: Inhibition of mouse Slc26a3 transfected in rat FRT cells preincubated with forskolin, 8-Br-cGMP and PMA and measured by fluorescence assay; type: cell-based
T1 sequence (Q9WVC8 whole entry): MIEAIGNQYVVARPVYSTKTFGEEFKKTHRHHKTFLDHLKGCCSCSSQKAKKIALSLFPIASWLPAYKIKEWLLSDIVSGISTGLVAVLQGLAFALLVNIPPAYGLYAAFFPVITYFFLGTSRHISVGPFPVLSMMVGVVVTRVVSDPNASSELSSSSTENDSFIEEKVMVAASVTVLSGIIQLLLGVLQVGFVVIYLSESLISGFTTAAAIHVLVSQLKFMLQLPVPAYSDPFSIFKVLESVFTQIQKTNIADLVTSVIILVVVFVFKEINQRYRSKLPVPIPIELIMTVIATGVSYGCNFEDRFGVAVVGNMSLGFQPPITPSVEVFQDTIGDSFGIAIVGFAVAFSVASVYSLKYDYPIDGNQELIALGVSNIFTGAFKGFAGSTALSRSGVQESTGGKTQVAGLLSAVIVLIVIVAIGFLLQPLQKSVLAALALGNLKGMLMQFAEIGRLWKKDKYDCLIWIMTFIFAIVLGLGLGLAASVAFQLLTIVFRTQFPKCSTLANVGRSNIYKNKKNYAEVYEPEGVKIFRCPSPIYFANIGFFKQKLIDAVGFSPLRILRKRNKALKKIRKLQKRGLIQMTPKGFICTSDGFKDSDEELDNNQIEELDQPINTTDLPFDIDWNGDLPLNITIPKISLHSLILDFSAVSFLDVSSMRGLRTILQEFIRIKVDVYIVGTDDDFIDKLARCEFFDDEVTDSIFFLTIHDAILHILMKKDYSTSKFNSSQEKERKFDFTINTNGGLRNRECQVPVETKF

Mus musculus [4] = test: In vivo inhibition of slc26a3 in loperamide-induced constipation model of female CD-1 mouse at 5 mg/kg, po assessed as reduction in pellet number; type: functional, organism-based
Mus musculus [5] = test: In vivo inhibition of slc26a3 in loperamide-induced constipation model of female CD-1 mouse at 5 mg/kg, po assessed as reduction in stool weight; type: functional, organism-based
Mus musculus [6] = test: In vivo inhibition of slc26a3 in loperamide-induced constipation model of female CD-1 mouse at 5 mg/kg, po assessed as reduction in stool water content; type: functional, organism-based
Mus musculus [7] = test: In vivo inhibition of slc26a3 in loperamide-induced constipation model of female CD-1 mouse at 1 to 10 mg/kg, po assessed as reduction in stool weight; type: functional, organism-based; details: dose 1-10 mg/kg
Mus musculus [8] = test: In vivo inhibition of slc26a3 in loperamide-induced constipation model of female CD-1 mouse at 1 to 10 mg/kg, po assessed as reduction in stool water content; type: functional, organism-based; details: dose 1-10 mg/kg
[9] = Toxicity in loperamide-induced constipation model of female CD-1 mouse at 10 mg/kg, po assessed as effect on stool parameters; type: organism-based; details: in vivo
Mus musculus [10] = organism: Mus musculus; test: Inhibition of oxalate absorption in high oxalate and low calcium diet-induced oxalate nephropathy model of mouse assessed as normalization of creatinine level; type: functional, organism-based
[11] = Toxicity in loperamide-induced constipation model of female CD-1 mouse at 10 mg/kg, po assessed as diarrhea; type: organism-based; details: in vivo
Mus musculus [12] = test: In vivo inhibition of slc26a3 in loperamide-induced constipation model of female CD-1 mouse at 1 to 10 mg/kg, po assessed as reduction in pellet number; type: functional, organism-based; details: dose 1-10 mg/kg
Mus musculus [13] = test: Inhibition of oxalate absorption in sodium oxalate-induced acute hyperoxaluria mouse model at 10 mg/kg, ip; type: functional, organism-based

Row | SMILES | IC50 (Chloride anion exchanger; read-out: IC50) [nM] | also measured
1 | CN1Cc2c(Cl)cc(Cl)cc2[C@H](c2cccc(S(=O)(=O)NCCOCCOCCNC(=O)NCCCCNC(=O)NCCOCCOCCNS(=O)(=O)c3cccc([C@@H]4CN(C)Cc5c(Cl)cc(Cl)cc54)c3)c2)C1 |  | inhibition (Mus musculus [1]): Active; inhibition (Mus musculus [2]): Active; inhibition (Mus musculus [3]): Active; inhibition (Colon): inactive
2 | Cc1c(CC(=O)O)c(=O)oc2c(C)c(OCc3ccccc3F)ccc12 | 510 | 
3 | O=C(CSc1nccn1-c1ccc(Cl)cc1)Nc1ccc(Cl)cc1 | 1700 | 
4 | Cc1ccc2ccccc2c1COc1ccc2c(C)c(CCC(=O)O)c(=O)oc2c1C |  | IC50 (Chloride anion exchanger; frt): Not Active
5 | Cc1c(CC(=O)O)c(=O)oc2c(C)c(OCc3cccc(F)c3)ccc12 | 840 | 
6 | CCc1ccc(NC(=O)CSc2nccn2-c2cccc(C)c2C)cc1 | 3500 | 
7 | Cc1ccc(NC(=O)CSc2nccn2-c2ccc(Cl)cc2)cc1 | 1600 | 
8 | Cc1c(CC(=O)O)c(=O)oc2c(C)c(OCc3cccc(C(F)(F)F)c3)ccc12 |  | inhibition (Mus musculus [4]): Active; inhibition (Mus musculus [5]): Active; inhibition (Mus musculus [6]): Active
9 | CCc1ccc(NC(=O)CSc2nccn2-c2ccc(OC)cc2)cc1 | 6500 | 
10 | COC(=O)CCc1c(C)c2ccc(OCc3ccc(C(C)(C)C)cc3)c(C)c2oc1=O |  | IC50 (Chloride anion exchanger; frt): Not Active
11 | Cc1cc(C)cc(-n2ccnc2SCC(=O)Nc2ccc(Cl)cc2)c1 | 4600 | 
12 | Cc1ccc(NC(=O)CSc2nccn2-c2ccccc2)cc1Cl | 1500 | 
13 | Cc1cc(C)cc(-n2ccnc2SCC(=O)Nc2ccc(Cl)c(Cl)c2)c1 | 2500 | 
14 | Cc1c(CC(=O)O)c(=O)oc2c(C)c(OCc3cccc(Cl)c3)ccc12 | 200 | 
15 | O=C(CSc1nccn1-c1ccc(Cl)cc1)Nc1cccc(C(F)(F)F)c1 | 12000 | 
16 | O=C(CSc1nccn1-c1ccc(Cl)cc1)Nc1ccc(Br)cc1 | 1800 | 
17 | O=C(CSc1nccn1-c1cccc(Cl)c1)Nc1ccc(Cl)cc1 | 2200 | 
18 | O=C(CSc1nccn1-c1ccc(F)cc1)Nc1ccc(Cl)c(Cl)c1 | 2600 | 

Row | SMILES | IC50 (Chloride anion exchanger; read-out: IC50) [nM] | also measured
19 | Cc1c(CC(=O)O)c(=O)oc2c(C)c(OCc3cccc(I)c3)ccc12 |  | inhibition (Mus musculus [7]): Active; inhibition (Mus musculus [8]): Active; Activity [9]: Non-Toxic; inhibition (Mus musculus [10]): Active; Activity [11]: Non-Toxic; inhibition (Mus musculus [12]): Active; inhibition (Mus musculus [13]): Active
20 | Cc1cccc(COc2ccc3c(C)c(CC(=O)O)c(=O)oc3c2C)c1 | 480 | 
21 | Cc1c(CC(=O)O)c(=O)oc2c(C)c(OCc3ccc(C(C)(C)C)cc3)ccc12 | 4600 | 
22 | Cc1cccc(-n2ccnc2SCC(=O)Nc2ccc(Br)cc2)c1 | 6400 | 
23 | COc1ccc(-n2ccnc2SCC(=O)Nc2ccc(Br)cc2)cc1 | 1900 | 
24 | CCCCCOc1ccc2c(C)c(CC(=O)O)c(=O)oc2c1C | 1200 | 
25 | Cc1cc(C)cc(COc2ccc3c(C)c(CC(=O)O)c(=O)oc3c2C)c1 | 540 | 
26 | CCOc1ccc(-n2ccnc2SCC(=O)Nc2ccc(Cl)cc2)cc1 | 1700 | 
27 | Cc1c(CCC(=O)O)c(=O)oc2c(C)c(OCc3ccc(F)cc3)ccc12 |  | IC50 (Chloride anion exchanger; frt): Not Active
28 | O=C(CSc1nccn1-c1cccc(Cl)c1)Nc1ccc(Cl)c(Cl)c1 | 2900 | 
29 | COc1cccc(-n2ccnc2SCC(=O)Nc2ccc(C)cc2)c1 | 7100 | 
30 | Cc1ccc(NC(=O)CSc2nccn2-c2ccc(Cl)cc2)cc1Cl | 11000 | 
31 | Cc1cc(C)cc(-n2ccnc2SCC(=O)Nc2ccc(C)c(Cl)c2)c1 | 2100 | 
32 | O=C(CSc1nccn1-c1ccc(Cl)cc1)Nc1ccc([N+](=O)[O-])cc1 | 7400 | 
33 | CCc1ccc(NC(=O)CSc2nccn2-c2ccc(Cl)cc2)cc1 | 5700 | 
34 | COC(=O)CCc1c(C)c2ccc(OCc3cccc(OC)c3)c(C)c2oc1=O |  | IC50 (Chloride anion exchanger; frt): Not Active
35 | Cc1cccc(-n2ccnc2SCC(=O)Nc2ccc(Cl)cc2)c1 | 6200 | 
